# Results published in patent publication US11952346B2, “Modulators of mas-related G-protein receptor X2 and related products and methods” (Escient Pharmaceuticals, Inc., priority 2020, dated 2024).
# Biological target: T1, human MRGPRX2 (Homo sapiens, UniProt Q96LB1)
# T1 construct: expressed in transfected cells
# T1 sequence (Q96LB1 1-330): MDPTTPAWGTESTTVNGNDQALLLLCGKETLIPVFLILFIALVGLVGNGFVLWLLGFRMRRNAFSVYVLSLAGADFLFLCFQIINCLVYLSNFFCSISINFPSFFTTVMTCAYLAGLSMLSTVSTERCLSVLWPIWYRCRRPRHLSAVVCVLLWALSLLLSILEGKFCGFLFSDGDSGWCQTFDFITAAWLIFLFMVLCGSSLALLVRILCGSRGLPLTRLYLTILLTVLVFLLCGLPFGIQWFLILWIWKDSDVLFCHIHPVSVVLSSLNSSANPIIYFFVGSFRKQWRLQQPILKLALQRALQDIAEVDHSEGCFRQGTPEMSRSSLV
# Assay: MRGPRX2 antagonist activity, IP-One HTRF assay in CHO cells expressing human MRGPRX2 versus Cortistatin-14
# Format: cell-based
# Conditions: CHO cells stably expressing human MRGPRX2; versus 0.3 uM Cortistatin-14 agonist; IP-1 HTRF readout; read-out: MRGPR2 Antagonist Activity
# Procedure: CHO cells stably transfected to express human MRGPRX2 were maintained in an incubator at 37° C. with 5% CO2 and grown in F12 (HAM) media with 10% fetal bovine serum (FBS), 1% Glutamax, 1% penicillin/streptomycin, 800 μg/mL Geneticin (G418), and 300 μg/mL Hygromycin B. Cells were plated in a 384-well assay plate at 20,000 cells per well in 12 μL of Opti-MEM and kept in an incubator overnight. On the day of the assay, compounds solubilized at 10 mM in DMSO were added as a 10-point curve (30 uM final top concentration with 1:3 serial dilutions) using a Tecan D300E digital dispenser. Agonists were diluted in assay buffer (final concentrations of 5.7 mM Tris-HCl, 43 mM NaCl, 50 mM LiCI, pH=8) and 2 μL of the agonist Cortistatin-14 (CPC Scientific, catalog CORT-002) are added to each well. Final concentrations of agonists were […] Cortistatin-14. Final concentrations of DMSO were kept consistent across the plate. Plates were incubated in the dark for 1 hr at 37° C. and then for 1 hr at room temperature. IP-1 standards and HTRF detection reagents were added according to the IP-One—Gq Kit purchased from Cisbio (part number 621PAPEJ) and incubated in the dark for 1 hr at room temperature. The plate was read on a Molecular Devices SpectraMax iD5 plate reader. The HTRF ratio was calculated from the raw data and graphed using GraphPad Prism to calculate an IC50 value for each compound.
# The activity ranges are denoted as follows: “+++++” denotes antagonist activity <100 nM; “++++” denotes antagonist activity between 100 and 500 nM; “+++” denotes activity between 501 and 1000 nM; “++” denotes activity between 1001 and 2500 nM; and “+” denotes activity >2500 nM.
row,Structure (SMILES),IC50 [nM]
1,CNC(=O)c1ccc(C(=O)N[C@H]2CC[C@@H](Nc3ccc(C#N)c(C(F)(F)F)c3)CC2)cc1 [4-65],< 100
2,Cc1cc2[nH]cnc2cc1C(=O)N[C@H]1CC[C@@H](Nc2cc(C(F)(F)F)nc(C(F)(F)F)c2)CC1 [4-8],100 to 500
3,"O=C(N[C@H]1CC[C@@H](Nc2cc(C3CC3)nc(C(F)(F)F)c2)CC1)c1ccc(F)cc1 [Example 8, N-(1S, 4S)-[4-[[2-cyclopropyl-6-(trifluoromethyl)-4-pyridyl]amino]cyclohexyl]-4-fluoro-benzamide]",1000 to 2500
4,Cc1cc(N[C@H]2CC[C@@H](NC(=O)c3ccc4nccn4c3)CC2)cc(C(F)(F)F)c1C#N [2-3],< 100
5,Cc1cc2c(C(=O)N[C@H]3CC[C@@H](Nc4ccc(C#N)c(C(F)(F)F)c4)CC3)ccnc2[nH]1 [4-60],< 100
6,N#Cc1ccc(N[C@H]2CC[C@@H](NC(=O)c3ccc4cn[nH]c4c3)CC2)cc1C(F)(F)F [4-49],< 100
7,N=C(N)Nc1ccc(C(=O)N[C@H]2CC[C@@H](Nc3cc(C(F)(F)F)nc(C(F)(F)F)c3)CC2)cc1 [4-20],501 to 1000
8,"COc1ccc(C(=O)N[C@H]2CC[C@@H](Nc3cc(C(F)(F)F)nc(N(C)C)n3)CC2)cc1 [Example 16, N-(1S,4S)-[4-[[2-(dimethylamino)-6-(trifluoromethyl)pyrimidin-4-yl]amino]cyclohexyl]-4-methoxy-benzamide]",501 to 1000
9,N#Cc1ccc(N[C@H]2CC[C@@H](NC(=O)c3csc(N)n3)CC2)cc1C(F)(F)F [1-15],100 to 500
10,O=C(N[C@H]1CC[C@@H](Nc2cc(C(F)(F)F)nc(C(F)(F)F)c2)CC1)c1ccc(F)cc1 [1-1],100 to 500
11,CNc1ccc(C(=O)N[C@H]2CC[C@@H](Nc3cc(C)c(C#N)c(C(F)(F)F)c3)CC2)cc1 [5-3],< 100
12,O=C(N[C@H]1CC[C@@H](Nc2cc(C(F)(F)F)nc(C(F)(F)F)c2)CC1)c1ccc(Cl)cc1 [4-14],501 to 1000
13,N#Cc1ccc(N[C@H]2CC[C@@H](NC(=O)c3ccc4[nH]ncc4c3)CC2)cc1C(F)(F)F [4-50],< 100
14,Cc1cc(N[C@H]2CC[C@@H](NC(=O)c3ccnc(NC(C)C)c3)CC2)cc(C(F)(F)F)c1C#N [5-2],< 100
15,Cc1cc(N[C@H]2CC[C@@H](NC(=O)c3cnn(CC(F)(F)F)c3)CC2)cc(C(F)(F)F)c1C#N [5-5],< 100
16,Cc1ccoc1C(=O)N[C@H]1CC[C@@H](Nc2cc(C(F)(F)F)nc(C(F)(F)F)c2)CC1 [1-5],1000 to 2500
17,CN(CC(F)F)c1ccc(C(=O)N[C@H]2CC[C@@H](Nc3ccc(C#N)c(C(F)(F)F)c3)CC2)cc1 [4-54],< 100
18,O=C(N[C@H]1CC[C@@H](Nc2cc(C(F)(F)F)nc(C(F)(F)F)c2)CC1)c1cccc2[nH]ccc12 [4-6],100 to 500
19,CNc1cc(C(=O)N[C@H]2CC[C@@H](Nc3cc(C)c(C#N)c(C(F)(F)F)c3)CC2)ccn1 [5-4],< 100
20,CC(=O)Nc1ccc(C(=O)N[C@H]2CC[C@@H](Nc3ccc(C#N)c(C(F)(F)F)c3)CC2)cc1 [4-48],< 100
21,O=C(N[C@H]1CC[C@@H](Nc2cc(C(F)(F)F)nc(C(F)(F)F)c2)CC1)c1c[nH]c2ccccc12 [4-22],100 to 500
22,COc1ccc(C(=O)N[C@H]2CC[C@@H](Nc3cc(C(F)F)nc(C(F)(F)F)c3)CC2)cc1 [4-43],100 to 500
23,COc1cccc(C(=O)N[C@H]2CC[C@@H](Nc3ccc(C#N)c(C(F)(F)F)c3)CC2)c1 [1-23],100 to 500
24,O=C(N[C@H]1CC[C@@H](Nc2cc(C(F)(F)F)nc(C(F)(F)F)c2)CC1)c1nc2ccccc2[nH]1 [4-35],1000 to 2500
25,COc1ccc(C(=O)N[C@H]2CC[C@@H](Nc3cc(C(F)(F)F)nc(N(C)C(C)C)n3)CC2)cc1 [3-1],1000 to 2500
26,CN(C)c1ccc(C(=O)N[C@H]2CC[C@@H](Nc3ccc(C#N)c(C(F)(F)F)c3)CC2)cc1 [1-21],< 100
27,COc1cccc(C(=O)N[C@H]2CC[C@@H](Nc3cc(C(F)(F)F)nc(C(F)(F)F)c3)CC2)c1 [4-1],100 to 500
28,O=C(N[C@H]1CC[C@@H](Nc2cc(C(F)(F)F)nc(C(F)(F)F)c2)CC1)c1cccc(O)c1 [4-28],100 to 500
